MIC data for eleven molecules are collected here from ChEMBL document CHEMBL3046071, “Synthesis and microbial evaluation of novel N(1)-Arilidene-N(2)-t(3)-methyl-r(2),c(6)-diaryl-piperidin-4-one azine derivatives” (2006).

What all share (type): functional
One test has as its system Aspergillus flavus. The test is described as follows: Antifungal activity against Aspergillus flavus.
Test [1] deals with Candida. The test is described as follows: Antifungal activity against Candida-6.
The test system of test [2] is Candida. The experiment in a line: Antifungal activity against Candida-51.
In the next test the test system is Aspergillus niger. The test is described as follows: Antifungal activity against Aspergillus niger.
The test system of a further test is Pseudomonas aeruginosa. The experiment in a line: Antibacterial activity against Pseudomonas aeruginosa.
In the next test the test system is Escherichia coli. The experiment in a line: Antibacterial activity against Escherichia coli.
A further test deals with Staphylococcus aureus. The test is described as follows: Antibacterial activity against Staphylococcus aureus.
Another test has as its system Enterococcus faecalis. The test is described as follows: Antibacterial activity against Enterococcus faecalis.
In the next test the test system is Bacillus subtilis. The test is described as follows: Antibacterial activity against Bacillus subtilis.

Values after ≈ are worked out from the molar mass of the structure shown.

The term MIC denotes the smallest concentration in the dilution series that meets the test's criterion for growth inhibition. For `CC1/C(=N/N=C/c2ccccc2O)CC(c2ccccc2)NC1c1ccccc1` (stereo not given), the MIC is 100 mg/L (≈ 261 µM) in the test on Aspergillus flavus; 50 mg/L (≈ 130 µM) in the test with Candida [1]; 25 mg/L (≈ 65.2 µM) against Candida [2]; 100 mg/L (≈ 261 µM) against Aspergillus niger; 50 mg/L (≈ 130 µM) against Pseudomonas aeruginosa; 100 mg/L (≈ 261 µM) in the test with Escherichia coli. Moreover, the MIC in the test with Staphylococcus aureus, in the test with Enterococcus faecalis and against Bacillus subtilis was 50 mg/L (≈ 130 µM) throughout.
With `CC1/C(=N/N)CC(c2ccco2)NC1c1ccco1` (stereo not given), the minimal inhibitory concentration (MIC) in the test with Aspergillus flavus, in the test on Candida [1], against Staphylococcus aureus and in the test on Bacillus subtilis was 100 mg/L (≈ 386 µM) in each case.
As for `CC1/C(=N/N=C/c2ccccc2[N+](=O)[O-])CC(c2ccccc2)NC1c1ccccc1` (stereo not given), the MIC against Aspergillus flavus is 100 mg/L (≈ 242 µM); with Candida [1] it was 100 mg/L (≈ 242 µM); with Candida [2] it was 50 mg/L (≈ 121 µM); in the test on Aspergillus niger it was 50 mg/L (≈ 121 µM); against Pseudomonas aeruginosa it was 50 mg/L (≈ 121 µM); against Escherichia coli it was 100 mg/L (≈ 242 µM). Besides, the minimum inhibitory concentration (MIC) against Staphylococcus aureus is 50 mg/L (≈ 121 µM); with Enterococcus faecalis, 100 mg/L (≈ 242 µM); in the test with Bacillus subtilis, 50 mg/L (≈ 121 µM).
`C[C@@H]1[C@H](O)[C@@H](C)/C=C/C=C/C=C/C=C/C=C/C=C/C=C/[C@H](O[C@@H]2O[C@H](C)[C@@H](O)[C@H](N)[C@@H]2O)C[C@@H]2O[C@](O)(C[C@@H](O)C[C@@H](O)[C@H](O)CC[C@@H](O)C[C@@H](O)CC(=O)O[C@H]1C)C[C@H](O)[C@H]2C(=O)O` [AMPHOTERICIN B]: the MIC in the test on Aspergillus flavus came to 50 mg/L (≈ 54.1 µM); against Candida [1] it was 25 mg/L (≈ 27.1 µM); with Candida [2] it was 25 mg/L (≈ 27.1 µM); in the test on Aspergillus niger, 50 mg/L (≈ 54.1 µM).
Turning to `CC1/C(=N/N=C/c2ccccc2Cl)CC(c2ccco2)NC1c1ccco1` (stereo not given), the MIC in the test on Aspergillus flavus stood at 50 mg/L (≈ 131 µM); against Candida [1], 12.5 mg/L (≈ 32.7 µM); against Candida [2], 12.5 mg/L (≈ 32.7 µM); in the test with Aspergillus niger, 25 mg/L (≈ 65.5 µM); against Pseudomonas aeruginosa it was 25 mg/L (≈ 65.5 µM); against Escherichia coli, 12.5 mg/L (≈ 32.7 µM). Further, the results for the minimal inhibitory concentration (MIC) against Staphylococcus aureus, in the test with Enterococcus faecalis and in the test on Bacillus subtilis were 25 mg/L (≈ 65.5 µM), 25 mg/L (≈ 65.5 µM) and 6.25 mg/L (≈ 16.4 µM), respectively.
With `COc1ccc(/C=N/N=C2\CC(c3ccccc3)NC(c3ccccc3)C2C)cc1` (mixture of isomers), the minimum inhibitory concentration (MIC) with Aspergillus flavus came to 100 mg/L; with Candida [1], 12.5 mg/L; against Candida [2], 12.5 mg/L; against Aspergillus niger it was 50 mg/L; in the test with Pseudomonas aeruginosa, 50 mg/L; in the test with Escherichia coli, 12.5 mg/L. The MIC in the test on Staphylococcus aureus is 25 mg/L; against Enterococcus faecalis it was 25 mg/L; in the test with Bacillus subtilis, 6.25 mg/L.
Turning to `CN[C@@H]1[C@H](O[C@H]2[C@H](O[C@H]3[C@H](O)[C@@H](O)[C@H](N=C(N)N)[C@@H](O)[C@@H]3N=C(N)N)O[C@@H](C)[C@]2(O)C=O)O[C@@H](CO)[C@H](O)[C@H]1O` [STREPTOMYCIN], the minimal inhibitory concentration (MIC) in the test on Pseudomonas aeruginosa is 25 mg/L (≈ 43 µM); against Escherichia coli, 12.5 mg/L (≈ 21.5 µM); against Staphylococcus aureus, 25 mg/L (≈ 43 µM); against Enterococcus faecalis, 50 mg/L (≈ 86 µM); against Bacillus subtilis, 12.5 mg/L (≈ 21.5 µM).
Take `CC1/C(=N/N)CC(c2ccccc2)NC1c1ccccc1` (stereo not given): the MIC with Aspergillus flavus, against Candida [1], against Staphylococcus aureus and against Bacillus subtilis was 100 mg/L (≈ 358 µM) in each case.
Regarding `C/C(=N\N=C1/CC(c2ccccc2)NC(c2ccccc2)C1C)c1ccccc1` (mixture of isomers), the minimum inhibitory concentration (MIC) with Aspergillus flavus is 100 mg/L; in the test with Candida [1] it was 25 mg/L; against Candida [2], 50 mg/L; in the test on Aspergillus niger, 50 mg/L; in the test with Pseudomonas aeruginosa, 25 mg/L; against Escherichia coli, 12.5 mg/L. Also, the MIC against Staphylococcus aureus turned out to be 50 mg/L; against Enterococcus faecalis, 25 mg/L; against Bacillus subtilis, 12.5 mg/L.
As for `CC1/C(=N/N=C2\CC(c3ccccc3)NC(c3ccccc3)C2C)CC(c2ccccc2)NC1c1ccccc1` (mixture of isomers), the MIC in the test with Aspergillus flavus amounted to 100 mg/L; with Candida [1], 50 mg/L; against Candida [2], 100 mg/L; in the test with Aspergillus niger it was 100 mg/L; in the test with Pseudomonas aeruginosa it was 100 mg/L; with Escherichia coli, 50 mg/L. For the same molecule, the MIC in the test on Staphylococcus aureus, against Enterococcus faecalis and in the test on Bacillus subtilis was 100 mg/L in each case.
In the case of `CC1/C(=N/N=C/c2ccco2)CC(c2ccccc2)NC1c1ccccc1` (stereo not given), the MIC in the test with Aspergillus flavus was found to be 50 mg/L (≈ 140 µM); in the test with Candida [1], 12.5 mg/L (≈ 35 µM); in the test with Candida [2] it was 12.5 mg/L (≈ 35 µM); in the test on Aspergillus niger, 12.5 mg/L (≈ 35 µM); with Pseudomonas aeruginosa, 50 mg/L (≈ 140 µM); with Escherichia coli it was 25 mg/L (≈ 69.9 µM). The figures for the minimal inhibitory concentration (MIC) with Staphylococcus aureus, against Enterococcus faecalis and against Bacillus subtilis were 12.5 mg/L (≈ 35 µM), 50 mg/L (≈ 140 µM) and 12.5 mg/L (≈ 35 µM), respectively.
